These are literature values, as cited in patent EP4752146A1, “NOVEL CA[…] CARRIER-DRUG CONJUGATE COMPRISING SAME” (priority 2023, dated 2025).

For this series, the system named is cancer cells. Conditions: background.

With `CC[C@@]1(O)C(=O)OCc2c1cc1n(c2=O)Cc2c-1nc1cc(F)c(C)c3c1c2[C@@H](NC(=O)CO)CC3` [DXd], the “activity in cancer cells relative to SN-38” value (higher than SN-38) is on record as “approximately 10 fold”.
`CCc1c2c(nc3ccc(O)cc13)-c1cc3c(c(=O)n1C2)COC(=O)[C@]3(O)CC` [SN-38]: for the setting “various cell lines”, the IC50 entry was “nanomolar range”.
